According to patent publication US12553889B2, “Small molecules targeting the intrinsically disordered structural ensemble of α-synuclein protect against diverse α-synuclein mediated dysfunctions” (The Regents of the University of California, priority 2019, dated 2026):

Key:
[1] = system: BACE, GST and CAII control proteins; test: Biacore 4000 SPR binding specificity (pb-index, control proteins); conditions: 100 μM
Experimental: The binding specificity of 576755 and its analogues was assessed by testing their ability to bind to αSyn versus a set of control proteins: Beta-Site Amyloid Precursor Protein Cleaving Enzyme 1 (BACE), Glutathione-S transferase (GST) and Carbonic Anhydrase (CAII). The binding data was merged into a pb-index, as discussed in more detail below. Compounds were tested at 100 μM using the Biacore 4000 instrument as described below. […] The percent RMax (% Rmax) for αSyn and the average % Rmax for the control proteins (pb-index) were calculated described below. […] The remaining 576755-analogues show no reaction with the control proteins and thus have improved specificity of binding.
Preparation of off-target protein sensor chips. […]
(§1) Surface Plasmon Resonance Measurements. […] Time-dependent binding curves were monitored simultaneously. […] The time-dependent binding curves were monitored simultaneously. […]
SPR Data Evaluation. The obtained data were quality controlled and evaluated using the manufacturers Evaluation Software as described previously (Regnström, K. et al. (2013)). Data were exported into Microsoft Excel and further analyzed as follows: The binding levels of running buffer injections were used to calculate the background noise level (>three-fold σ). All binding level data was calculated by subtracting the background noise level and adjustment to molecular weight (% Rmax). […]

[2] = target: αSyn (Homo sapiens, UniProt P37840); test: Biacore T200 SPR kinetics and affinity to tethered αSyn; assay type: binding; design: made in house; host or cells: E. coli
Experimental: RU (resonance units) from the Biacore machine are plotted against time. […] 576755 was injected at six concentrations in two-fold dilutions starting at 200 μM in running buffer containing 25 mM TRIS pH 7.4, 100 mM NaCl, 1% DMSO. […] All data were fitted to 1:1 binding model using the T200 software evaluation.
A Biacore Surface Plasmon Resonance (SPR) method was developed to detect binding to αSyn both in a high throughput manner (Biacore 4000 machine) and in a sensitive format (Biacore T200). A dual capture method was developed in which αSyn is captured both by an antibody to the central region of αSyn and by immobilized N-termal His-tagged αSyn. […]
as §1
Affinity constants were determined using the Biacore T200 evaluation software V.1 by curve fitting using a 1:1 binding model. […] The rate of complex formation during fragment injection is calculated according to the equation (2): dR/dt=kaC(Rmax−R)−kdR (1:1 interaction), where R is the SPR signal in response units (RU), C is the concentration of analyte, Rmax is the maximum analyte binding capacity in RU, and dR/dt is the rate of SPR signal change. […]

CNC(=O)c1cc(O)ccc1N [Compound 576755, 2-amino-5-hydroxy-N-methylbenzamide]
binding to control proteins (pb-index versus % Rmax of αSyn binding) [1]: some non-specific binding to the control proteins
Kd ([2]; six concentrations in two-fold dilutions from 200 μM, 25 mM TRIS pH 7.4, 100 mM NaCl, 1% DMSO, read-out: binding affinity for αSyn (kinetics fits, 1:1 binding model)): 73 µM
binding behaviour (Biacore traces, off rates) ([2]; tethered αSyn): well-behaved, robust and reversible binding
